Test results reported in PMC7407272, “Induction of Lysosome Membrane Permeabilization as a Therapeutic Strategy to Target Pancreatic Cancer Stem Cells” (Cancers, 2020).

Experiments:
Assay in all cases: KINOMEscan
Type in all cases: binding
Conditions in all cases: read-out: % Ctrl
TNK2 = molecular target: T1, TNK2 (Homo sapiens, UniProt Q07912)
T1 construct: purchased DiscoveRx KINOMEscan

GRK4 = molecular target: T2, GRK4 (Homo sapiens, UniProt P32298)
T2 construct: purchased DiscoveRx KINOMEscan

NLK = molecular target: T3, NLK (Homo sapiens, UniProt Q9UBE8)
T3 construct: purchased DiscoveRx KINOMEscan

JAK1(JH1D.-cat.) = molecular target: T4, JAK1(JH1D.-cat.) (Homo sapiens, UniProt P23458)
T4 construct: JAK1(JH1D.-cat.); purchased DiscoveRx KINOMEscan

PLK3 = molecular target: T5, PLK3 (Homo sapiens, UniProt Q9H4B4)
T5 construct: purchased DiscoveRx KINOMEscan

EPHA8 = molecular target: T6, EPHA8 (Homo sapiens, UniProt P29322)
T6 construct: purchased DiscoveRx KINOMEscan

p38-beta = molecular target: T7, p38-beta (Homo sapiens, UniProt Q15759)
T7 construct: purchased DiscoveRx KINOMEscan

PIK3C2G = molecular target: T8, PIK3C2G (Homo sapiens, UniProt O75747)
T8 construct: purchased DiscoveRx KINOMEscan

SIK = molecular target: T9, SIK (Homo sapiens, UniProt P57059)
T9 construct: purchased DiscoveRx KINOMEscan

EGFR(S752-I759del) = molecular target: T10, EGFR(S752-I759del) (Homo sapiens, UniProt P00533, DEL752-759)
T10 construct: purchased DiscoveRx KINOMEscan

PRKCE = molecular target: T11, PRKCE (Homo sapiens, UniProt Q02156)
T11 construct: purchased DiscoveRx KINOMEscan

FLT3(R834Q) = molecular target: T12, FLT3(R834Q) (Homo sapiens, UniProt P36888, R834Q)
T12 construct: purchased DiscoveRx KINOMEscan

FGR = molecular target: T13, FGR (Homo sapiens, UniProt P09769)
T13 construct: purchased DiscoveRx KINOMEscan

WEE1 = molecular target: T14, WEE1 (Homo sapiens, UniProt P30291)
T14 construct: purchased DiscoveRx KINOMEscan

FLT3(K663Q) = molecular target: T15, FLT3(K663Q) (Homo sapiens, UniProt P36888, K663Q)
T15 construct: purchased DiscoveRx KINOMEscan

EPHA1 = molecular target: T16, EPHA1 (Homo sapiens, UniProt P21709)
T16 construct: purchased DiscoveRx KINOMEscan

SNARK = molecular target: T17, SNARK (Homo sapiens, UniProt Q9H093)
T17 construct: purchased DiscoveRx KINOMEscan

JNK2 = molecular target: T18, JNK2 (Homo sapiens, UniProt P45984)
T18 construct: purchased DiscoveRx KINOMEscan

SRMS = molecular target: T19, SRMS (Homo sapiens, UniProt Q9H3Y6)
T19 construct: purchased DiscoveRx KINOMEscan

CSNK1A1L = molecular target: T20, CSNK1A1L (Homo sapiens, UniProt Q8N752)
T20 construct: purchased DiscoveRx KINOMEscan

FLT3 = molecular target: T21, FLT3 (Homo sapiens, UniProt P36888)
T21 construct: purchased DiscoveRx KINOMEscan

EGFR(T790M) = molecular target: T22, EGFR(T790M) (Homo sapiens, UniProt P00533, T790M)
T22 construct: purchased DiscoveRx KINOMEscan

FER = molecular target: T23, FER (Homo sapiens, UniProt P16591)
T23 construct: purchased DiscoveRx KINOMEscan

IRAK4 = molecular target: T24, IRAK4 (Homo sapiens, UniProt Q9NWZ3)
T24 construct: purchased DiscoveRx KINOMEscan

CAMK2D = molecular target: T25, CAMK2D (Homo sapiens, UniProt Q13557)
T25 construct: purchased DiscoveRx KINOMEscan

AKT1 = molecular target: T26, AKT1 (Homo sapiens, UniProt P31749)
T26 construct: purchased DiscoveRx KINOMEscan

PIM3 = PIM3 (Homo sapiens, UniProt Q86V86); design: purchased DiscoveRx KINOMEscan
QSK = molecular target: T27, QSK (Homo sapiens, UniProt Q9Y2K2)
T27 construct: purchased DiscoveRx KINOMEscan

PIK3CA(Q546K) = molecular target: T28, PIK3CA(Q546K) (Homo sapiens, UniProt P42336, Q546K)
T28 construct: purchased DiscoveRx KINOMEscan

FLT3(D835V) = molecular target: T29, FLT3(D835V) (Homo sapiens, UniProt P36888, D835V)
T29 construct: purchased DiscoveRx KINOMEscan

AMPK-alpha1 = molecular target: T30, AMPK-alpha1 (Homo sapiens, UniProt Q13131)
T30 construct: purchased DiscoveRx KINOMEscan

MAP3K4 = molecular target: T31, MAP3K4 (Homo sapiens, UniProt Q9Y6R4)
T31 construct: purchased DiscoveRx KINOMEscan

SNRK = molecular target: T32, SNRK (Homo sapiens, UniProt Q9NRH2)
T32 construct: purchased DiscoveRx KINOMEscan

ERK1 = molecular target: T33, ERK1 (Homo sapiens, UniProt P27361)
T33 construct: purchased DiscoveRx KINOMEscan

STK35 = molecular target: T34, STK35 (Homo sapiens, UniProt Q8TDR2)
T34 construct: purchased DiscoveRx KINOMEscan

EPHB6 = molecular target: T35, EPHB6 (Homo sapiens, UniProt O15197)
T35 construct: purchased DiscoveRx KINOMEscan

TLK1 = molecular target: T36, TLK1 (Homo sapiens, UniProt Q9UKI8)
T36 construct: purchased DiscoveRx KINOMEscan

PKNB(M.tuberculosis) = molecular target: T37, PKNB(M.tuberculosis) (Mycobacterium tuberculosis, UniProt P9WI81)
T37 construct: purchased DiscoveRx KINOMEscan

AURKA = molecular target: T38, AURKA (Homo sapiens, UniProt O14965)
T38 construct: purchased DiscoveRx KINOMEscan

RSK3(KD1-N-t.) = molecular target: T39, RSK3(KD1-N-t.) (Homo sapiens, UniProt Q15349)
T39 construct: RSK3(KD1-N-t.); purchased DiscoveRx KINOMEscan

MYO3B = molecular target: T40, MYO3B (Homo sapiens, UniProt Q8WXR4)
T40 construct: purchased DiscoveRx KINOMEscan

STK33 = molecular target: T41, STK33 (Homo sapiens, UniProt Q9BYT3)
T41 construct: purchased DiscoveRx KINOMEscan

ERK2 = molecular target: T42, ERK2 (Homo sapiens, UniProt P28482)
T42 construct: purchased DiscoveRx KINOMEscan

T24 sequence (Q9NWZ3 whole entry): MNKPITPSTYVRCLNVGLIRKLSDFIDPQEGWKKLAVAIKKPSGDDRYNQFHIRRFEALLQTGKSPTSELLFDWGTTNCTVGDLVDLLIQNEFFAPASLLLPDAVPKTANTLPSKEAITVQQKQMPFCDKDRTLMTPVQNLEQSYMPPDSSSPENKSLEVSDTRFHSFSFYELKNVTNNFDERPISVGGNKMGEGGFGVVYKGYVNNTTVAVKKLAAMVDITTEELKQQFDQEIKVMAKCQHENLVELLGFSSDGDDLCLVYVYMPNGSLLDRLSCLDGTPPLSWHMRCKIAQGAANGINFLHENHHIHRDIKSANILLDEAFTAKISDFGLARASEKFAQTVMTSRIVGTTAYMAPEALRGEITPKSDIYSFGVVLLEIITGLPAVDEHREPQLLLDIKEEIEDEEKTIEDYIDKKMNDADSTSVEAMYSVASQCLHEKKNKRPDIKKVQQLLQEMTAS
T20 sequence (Q8N752 whole entry): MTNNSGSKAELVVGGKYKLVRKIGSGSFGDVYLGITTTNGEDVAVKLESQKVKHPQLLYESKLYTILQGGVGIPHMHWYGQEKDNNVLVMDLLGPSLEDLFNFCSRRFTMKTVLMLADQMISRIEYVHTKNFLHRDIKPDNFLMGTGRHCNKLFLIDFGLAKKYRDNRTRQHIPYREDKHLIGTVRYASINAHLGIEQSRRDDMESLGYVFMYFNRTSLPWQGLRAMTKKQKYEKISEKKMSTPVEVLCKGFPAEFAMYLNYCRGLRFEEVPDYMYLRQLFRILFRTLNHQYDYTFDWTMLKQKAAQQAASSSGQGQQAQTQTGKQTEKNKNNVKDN
T40 sequence (Q8WXR4 whole entry): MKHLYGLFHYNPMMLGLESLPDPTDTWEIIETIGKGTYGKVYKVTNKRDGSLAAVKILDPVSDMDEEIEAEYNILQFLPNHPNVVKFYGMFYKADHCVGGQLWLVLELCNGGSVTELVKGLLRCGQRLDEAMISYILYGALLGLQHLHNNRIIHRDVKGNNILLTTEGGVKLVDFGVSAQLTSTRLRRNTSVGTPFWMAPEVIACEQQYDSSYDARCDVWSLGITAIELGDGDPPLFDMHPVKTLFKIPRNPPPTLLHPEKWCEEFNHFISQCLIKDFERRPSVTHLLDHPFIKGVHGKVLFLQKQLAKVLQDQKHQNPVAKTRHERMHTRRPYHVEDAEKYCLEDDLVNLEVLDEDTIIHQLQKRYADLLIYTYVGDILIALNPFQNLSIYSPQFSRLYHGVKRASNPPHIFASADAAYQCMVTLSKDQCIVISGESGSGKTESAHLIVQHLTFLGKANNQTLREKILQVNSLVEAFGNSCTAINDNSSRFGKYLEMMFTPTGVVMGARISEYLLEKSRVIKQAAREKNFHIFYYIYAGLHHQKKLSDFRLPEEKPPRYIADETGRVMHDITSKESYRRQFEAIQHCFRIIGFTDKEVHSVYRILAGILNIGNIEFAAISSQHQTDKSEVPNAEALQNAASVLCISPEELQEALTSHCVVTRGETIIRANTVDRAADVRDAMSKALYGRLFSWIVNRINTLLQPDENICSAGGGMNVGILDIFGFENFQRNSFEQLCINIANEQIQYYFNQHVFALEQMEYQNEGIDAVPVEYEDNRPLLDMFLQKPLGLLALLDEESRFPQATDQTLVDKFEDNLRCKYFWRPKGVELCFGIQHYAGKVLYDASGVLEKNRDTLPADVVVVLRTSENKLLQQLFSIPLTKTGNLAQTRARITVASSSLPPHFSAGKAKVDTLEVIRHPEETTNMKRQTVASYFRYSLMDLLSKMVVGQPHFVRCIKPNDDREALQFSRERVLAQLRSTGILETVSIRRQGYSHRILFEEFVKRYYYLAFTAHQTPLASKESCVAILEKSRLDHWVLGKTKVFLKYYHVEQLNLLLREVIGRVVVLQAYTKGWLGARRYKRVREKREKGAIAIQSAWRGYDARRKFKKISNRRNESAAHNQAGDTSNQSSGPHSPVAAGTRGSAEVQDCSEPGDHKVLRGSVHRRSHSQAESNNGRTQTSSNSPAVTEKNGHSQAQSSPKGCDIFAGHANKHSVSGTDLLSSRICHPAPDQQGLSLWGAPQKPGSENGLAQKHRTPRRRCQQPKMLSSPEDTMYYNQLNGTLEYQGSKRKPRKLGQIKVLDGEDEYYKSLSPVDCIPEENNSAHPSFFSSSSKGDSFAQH
T8 sequence (O75747 whole entry): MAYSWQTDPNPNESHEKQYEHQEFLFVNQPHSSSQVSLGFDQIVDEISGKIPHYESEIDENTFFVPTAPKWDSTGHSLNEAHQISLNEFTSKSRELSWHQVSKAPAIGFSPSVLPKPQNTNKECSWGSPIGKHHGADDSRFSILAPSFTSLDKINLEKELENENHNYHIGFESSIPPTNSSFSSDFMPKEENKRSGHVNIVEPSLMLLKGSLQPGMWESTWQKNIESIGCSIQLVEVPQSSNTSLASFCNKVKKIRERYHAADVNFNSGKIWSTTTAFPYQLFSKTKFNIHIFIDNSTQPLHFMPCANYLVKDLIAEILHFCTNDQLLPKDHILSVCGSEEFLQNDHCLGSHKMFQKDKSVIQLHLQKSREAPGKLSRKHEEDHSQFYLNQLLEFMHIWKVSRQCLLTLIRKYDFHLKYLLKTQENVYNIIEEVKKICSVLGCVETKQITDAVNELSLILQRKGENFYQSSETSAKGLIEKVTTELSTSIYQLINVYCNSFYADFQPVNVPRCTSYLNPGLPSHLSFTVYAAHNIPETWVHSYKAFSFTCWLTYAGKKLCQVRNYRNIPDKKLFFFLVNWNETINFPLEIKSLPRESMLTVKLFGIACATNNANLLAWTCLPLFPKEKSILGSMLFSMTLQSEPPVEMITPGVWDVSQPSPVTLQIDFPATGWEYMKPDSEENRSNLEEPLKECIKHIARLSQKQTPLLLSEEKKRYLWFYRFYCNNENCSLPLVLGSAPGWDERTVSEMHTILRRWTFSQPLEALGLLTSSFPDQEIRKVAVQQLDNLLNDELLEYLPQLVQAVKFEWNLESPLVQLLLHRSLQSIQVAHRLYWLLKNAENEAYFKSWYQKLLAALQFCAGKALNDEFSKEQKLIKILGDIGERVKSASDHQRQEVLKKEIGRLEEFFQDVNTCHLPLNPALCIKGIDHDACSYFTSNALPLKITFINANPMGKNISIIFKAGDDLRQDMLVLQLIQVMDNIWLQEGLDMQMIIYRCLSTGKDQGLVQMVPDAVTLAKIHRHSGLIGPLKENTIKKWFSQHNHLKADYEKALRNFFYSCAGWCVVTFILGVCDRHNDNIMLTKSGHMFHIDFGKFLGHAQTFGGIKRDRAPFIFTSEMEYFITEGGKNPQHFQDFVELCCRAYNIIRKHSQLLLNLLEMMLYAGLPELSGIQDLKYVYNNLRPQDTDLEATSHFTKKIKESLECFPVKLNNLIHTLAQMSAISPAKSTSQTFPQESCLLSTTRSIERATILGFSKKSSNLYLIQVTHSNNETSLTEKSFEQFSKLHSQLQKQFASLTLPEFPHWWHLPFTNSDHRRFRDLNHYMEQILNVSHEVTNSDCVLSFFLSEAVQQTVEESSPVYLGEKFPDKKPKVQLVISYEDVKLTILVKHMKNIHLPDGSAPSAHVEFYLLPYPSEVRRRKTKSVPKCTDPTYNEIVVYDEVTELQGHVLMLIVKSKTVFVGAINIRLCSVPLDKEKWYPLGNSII
T39 sequence (Q15349 1-388 limits assumed): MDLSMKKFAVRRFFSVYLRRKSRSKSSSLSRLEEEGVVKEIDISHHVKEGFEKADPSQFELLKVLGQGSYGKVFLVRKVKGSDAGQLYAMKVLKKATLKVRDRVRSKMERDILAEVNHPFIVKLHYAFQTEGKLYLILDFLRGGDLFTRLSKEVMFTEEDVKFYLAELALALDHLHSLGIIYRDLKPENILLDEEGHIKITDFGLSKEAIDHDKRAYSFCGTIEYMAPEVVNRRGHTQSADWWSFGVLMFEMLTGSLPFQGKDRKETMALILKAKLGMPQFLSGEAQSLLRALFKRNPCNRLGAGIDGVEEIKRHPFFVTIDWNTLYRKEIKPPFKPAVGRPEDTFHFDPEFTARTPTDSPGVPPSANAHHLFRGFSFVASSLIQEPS
T11 sequence (Q02156 whole entry): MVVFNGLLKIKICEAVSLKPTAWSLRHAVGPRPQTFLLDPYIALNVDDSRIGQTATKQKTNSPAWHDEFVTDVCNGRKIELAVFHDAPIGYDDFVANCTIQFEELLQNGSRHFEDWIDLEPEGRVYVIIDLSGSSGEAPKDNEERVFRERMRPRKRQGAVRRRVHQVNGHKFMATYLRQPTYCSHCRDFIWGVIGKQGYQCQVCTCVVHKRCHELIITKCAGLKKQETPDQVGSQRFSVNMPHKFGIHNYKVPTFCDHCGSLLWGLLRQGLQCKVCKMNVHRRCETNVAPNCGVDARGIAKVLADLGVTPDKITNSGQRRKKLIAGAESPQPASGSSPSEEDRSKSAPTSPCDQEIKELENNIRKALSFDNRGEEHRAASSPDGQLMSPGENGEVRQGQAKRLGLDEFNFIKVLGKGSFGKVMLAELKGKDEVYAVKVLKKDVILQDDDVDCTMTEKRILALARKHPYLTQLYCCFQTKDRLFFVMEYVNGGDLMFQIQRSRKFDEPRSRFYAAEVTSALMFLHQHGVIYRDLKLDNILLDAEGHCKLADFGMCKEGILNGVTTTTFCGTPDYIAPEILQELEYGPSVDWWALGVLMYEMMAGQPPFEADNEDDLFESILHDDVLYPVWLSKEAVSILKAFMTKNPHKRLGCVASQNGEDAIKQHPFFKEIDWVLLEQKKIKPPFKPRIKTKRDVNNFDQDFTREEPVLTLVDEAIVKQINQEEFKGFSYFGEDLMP

Structure (SMILES): CN1CCC(CNc2ccc3ncc(C(=O)Nc4cccc(OC(F)(F)F)c4)n3n2)CC1 [Cpd 2]
- remaining binding at 1 µM (TNK2): 99%
- remaining binding at 1 µM (GRK4): 93%
- remaining binding at 1 µM (NLK): 97%
- remaining binding at 1 µM (JAK1(JH1D.-cat.)): 100%
- remaining binding at 1 µM (PLK3): 97%
- remaining binding at 1 µM (EPHA8): 100%
- remaining binding at 1 µM (p38-beta): 100%
- remaining binding at 1 µM (PIK3C2G): 59%
- remaining binding at 1 µM (SIK): 99%
- remaining binding at 1 µM (EGFR(S752-I759del)): 97%
- remaining binding at 1 µM (PRKCE): 70%
- remaining binding at 1 µM (FLT3(R834Q)): 100%
- remaining binding at 1 µM (FGR): 77%
- remaining binding at 1 µM (WEE1): 96%
- remaining binding at 1 µM (FLT3(K663Q)): 92%
- remaining binding at 1 µM (EPHA1): 100%
- remaining binding at 1 µM (SNARK): 89%
- remaining binding at 1 µM (JNK2): 99%
- remaining binding at 1 µM (SRMS): 87%
- remaining binding at 1 µM (CSNK1A1L): 95%
- remaining binding at 1 µM (FLT3): 92%
- remaining binding at 1 µM (EGFR(T790M)): 96%
- remaining binding at 1 µM (FER): 98%
- remaining binding at 1 µM (IRAK4): 100%
- remaining binding at 1 µM (CAMK2D): 99%
- remaining binding at 1 µM (AKT1): 100%
- remaining binding at 1 µM (PIM3): 18%
- remaining binding at 1 µM (QSK): 100%
- remaining binding at 1 µM (PIK3CA(Q546K)): 89%
- remaining binding at 1 µM (FLT3(D835V)): 0.45%
- remaining binding at 1 µM (AMPK-alpha1): 100%
- remaining binding at 1 µM (MAP3K4): 86%
- remaining binding at 1 µM (SNRK): 98%
- remaining binding at 1 µM (ERK1): 100%
- remaining binding at 1 µM (STK35): 92%
- remaining binding at 1 µM (EPHB6): 92%
- remaining binding at 1 µM (TLK1): 98%
- remaining binding at 1 µM (PKNB(M.tuberculosis)): 90%
- remaining binding at 1 µM (AURKA): 96%
- remaining binding at 1 µM (RSK3(KD1-N-t.)): 93%
- remaining binding at 1 µM (MYO3B): 100%
- remaining binding at 1 µM (STK33): 100%
- remaining binding at 1 µM (ERK2): 100%
